Test [1] concerns Drosophila Notch N^EC/N^TM heterodimer. Description: Tethering of N^EC to N^TM in Notch expressing S2 cells (supernatant Western blot, sucrose density centrifugation). The test is classed as cell-based. The following applies: for dissociation of N^EC and N^TM: calcium ion chelators. The procedure: Briefly, Drosophila S2 cells were induced to express Notch with the addition of 0.7 mM CuSO4 for 16 hours; Notch expression was under the control of the metallothionien promoter (Fehon et al., 1990, Cell 61:523-534). The cells were washed once with 20 mM Tris-HCl, 150 mM NaCl, 2 mM CaCl2 (TBS/Ca^2+) and were resuspended in TBS/Ca^2+ or in 20 mM Tris-HCl, 150 mM NaCl. 2 mM EDTA (TBS/EDTA) and incubated for one hour at room temperature under slow rocking. The cells were centrifuged and pelleted and the supernatants were collected for SDS-PAGE and Western blot analysis. The blot was probed with a monoclonal antibody directed to the extracellular domain of Notch, specifically against EGF-like repeats 5-7 of Drosophila Notch (clone C461.3B). This monoclonal was detected using goat anti-mouse horseradish peroxidase secondary antibody and chemiluminescent substrate.
The extracts were sedimented through a 5-20% sucrose gradient in the above-respective buffers (without the protease inhibitors) in a Beckman SW50.1 rotor at 34,000 rpm for 16 hours at 4° C. Fractions were collected and precipitated with 10% trichloroacetic acid. The protein pellets were resuspended in SDS-PAGE sample buffer and analyzed by SDS-PAGE and Western blotting. Blots were probed with a mixture of monoclonal antibodies C461.3B and 9C6 (directed against the intracellular domain of Notch) and detected as described above.

Test [2] deals with human Notch2. The test can be described thus: Pulse chase labeling of Notch2 processing in SJ-NB5 cells. The test is classed as cell-based. To be noted: for breakdown (cleavage, processing) of full-length Notch: [35S] pulse 20 min and chase at 37° C., immunoprecipitated by PGHN, Brefeldin A 10 μg/ml; for appearance of N^EC: pulse labeling. The procedure:
SJ-NB5 cells were grown on 60 mm petri dishes until ˜80% confluent, washed once with PBS, and then incubated in methionine and cysteine free DMEM medium for 1 hr. 100 μCi^35S-translabled Met-Cys (ICN) was added to each plate, pulsed at 37° C. for 20 minutes, and chased for varying times and temperatures. The chase began by adding 2× volume complete medium plus 100 μg/ml cold methionine and cysteine to the plates. For Brefeldin A samples, Brefeldin A was maintained at a final concentration of 10 μg/ml in starvation medium as well as in both pulse and chase. Cells were washed with cold PBS and lysed in lysis buffer (Zagouras et al., 1995, Proc. Natl. Acad. Sci. USA 92:6414-6418) containing 1 mM Pefabloc SC, 0.7 μg/mlpepstatin A, and 0.5 μg/ml leupeptin. Cell lysates were centrifuged at 14,000 rpm for 5 minutes. The supernatants were transferred to fresh tubes and pre-cleared by incubating with 5 μl normal rabbit serum and 50 μl 10% protein A-sephrose CL-4B (Pharmacia LKB) for 1 hr at 4° C. The beads were pelleted by centrifugation and the supernatants were divided into two equal aliquots. One aliquot was immunoprecipitated by incubating with rabbit polyclonal anti-human Notch2 antibody PGHN and 50 μl protein A-sephrose CL-4B for 2-3 hrs or overnight at 4° C. The other aliquot was immunoprecipitated by normal rabbit serum as control. The beads were washed three times in RIPA buffer B (150 mM NaCl, 1% NP40, 0.5% DOC, 0.1% SDS, 50 mM Tris, pH 7.5); washed once in 50 mM Tris-Cl, 150 mM NaCl, pH 7.5; resuspended in 50 μl SDS-sample buffer; boiled; and subjected to a 3-15% gradient SDS-PAGE. The gel was fixed in 25% iso-propanol, 10% acetic acid for 30 minutes, soaked in Amplify™ (Amersham) for 15-30 minutes, dried, and exposed to X-ray film at −70° C.
In an attempt to determine the cellular compartment where Notch is cleaved, pulse labeling analyses were carried out in the presence of drugs that are known to interfere with cellular trafficking.

For test [3], the system named is Notch/Delta. The test can be described thus: Co-immunoprecipitation of N^TM with Delta antibodies after Notch/Delta cell aggregation. The test is classed as cell-based, Drosophila. The following applies: aggregation disrupted by depleting calcium from the medium; data not shown. The procedure: Human neuroblastoma (SJ-NB5) cells were grown at 37° C. in an atmosphere of 5% CO2/95% air, in RPMI (Gibco-BRL, Grand Island, N.Y.) supplemented with 10% fetal bovine serum (Gibco BRL, Grand Island, N.Y.), 2 mM L-Glutamine (ICN Biomedicals, Inc., Costa Mesa, Calif.), 100 μg/ml penicillin, and 100 μg/ml streptomycin (ICN Biomedicals, Inc., Costa Mesa, Calif.). Cells were dissociated using phosphate buffered saline (PBS) with 0.25% trypsin and 0.03% EDTA (J. T. Baker, Inc., Phillipsburg, N.J.), and subcultured at ratios of 1:3 to 1:10. HaCat Cells (cultured human keratinocytes) were a gift from Dr. Michael Reiss (Yale University). Aggregation experiments and the maintenance of Drosophila S2 and KC cells were as described in Fehon et al., 1990, Cell 61:523-534.
The biological significance of the heterodimeric Notch form would be questionable if it could not bind ligands. […] If the heterodimeric form interacts with Delta after aggregation then the 110 kd N^TM fragment should co-immunoprecipitate using Delta antibodies.

Entries after “also recorded” stand apart in the source; their conditions may differ.

Turning to `O[C@H](CS)[C@H](O)CS` (racemic) [dithiothreitol (DTT), dithiothreitol], in test [1], the “sensitivity of the N^EC/N^TM interaction to reducing agents” value was “sensitive”.
As for `C[C@H]1CCC/C=C/[C@@H]2C[C@H](O)C[C@H]2[C@H](O)/C=C/C(=O)O1` [Brefeldin A], in test [2], the “breakdown (cleavage, processing) of full-length Notch” value is “effectively blocks the breakdown of full-length Notch; also recorded: blocked; also recorded: inhibit the cleavage of Notch” and the “appearance of N^EC” value is listed as “is inhibited”.
For the compound `O=C(O)CN(CCN(CC(=O)O)CC(=O)O)CC(=O)O` [EDTA], in test [1] (2 mM EDTA, Tris-HCl saline buffer, one hour at room temperature, Western blot), the “N^EC in the supernatant of Notch expressing S2 cells” value is “N^EC is present in the supernatant”. The “sedimentation of N^EC and N^TM in sucrose density centrifugation” value in test [1] (S2 cell extracts, TBS/EDTA with 1% Triton X-100, 5-20% sucrose gradient) is reported as “sediment separately”. Moreover, the “dissociation of N^EC and N^TM” value in test [1] is on record as “dissociate”.
Regarding `O=C(O)CN(CCOCCOCCN(CC(=O)O)CC(=O)O)CC(=O)O` [EGTA], in test [1], the “dissociation of N^EC and N^TM” value is “dissociate”. Moreover, in test [3], the “precipitation of N^TM by Delta antibodies” value is “fail to efficiently precipitate N^TM”.
Regarding `CCN(CC)CCCC(C)Nc1ccnc2cc(Cl)ccc12` (stereo not shown) [chloraquinone], in test [2], the “breakdown (cleavage, processing) of full-length Notch” value is on record as “do not affect processing” and the “appearance of N^EC” value was “not inhibited”.
For `CC[C@@]1([C@@H]2O[C@@H]([C@H]3O[C@@](O)(CO)[C@H](C)C[C@@H]3C)C[C@@H]2C)CC[C@H]([C@]2(C)CC[C@]3(C[C@H](O)[C@@H](C)[C@@H]([C@@H](C)[C@@H](OC)[C@H](C)C(=O)O)O3)O2)O1` [monensin] the same measures were “do not affect processing” and “not inhibited”.
On to `OCCS` [β-mercaptoethanol], for which, in test [1], the “sensitivity of the N^EC/N^TM interaction to reducing agents” value is “sensitive”.

Source of the values: patent US20110028383A1, “Activated Forms Of Notch And Methods Based Thereon” (priority 1997, published 2011).
